# Source: patent US20120035268A1, “SPHINGO-GUANIDINES AND THEIR USE AS INHIBITORS OF SPHINGOSINE KINASE” (priority 2008, published 2012)
# Structures can show the parent of a compound that is named as a salt. Where two headings read alike, the source gives them in different places.
# Experiments:
# [1] = target: T1, sphingosine kinase 2 (SK2) (Homo sapiens, UniProt Q9NRA0); experiment: In vitro inhibition of purified recombinant sphingosine kinase 2; assay type: biochemical; conditions: purified recombinant enzyme
# T1 sequence (Q9NRA0 1-654): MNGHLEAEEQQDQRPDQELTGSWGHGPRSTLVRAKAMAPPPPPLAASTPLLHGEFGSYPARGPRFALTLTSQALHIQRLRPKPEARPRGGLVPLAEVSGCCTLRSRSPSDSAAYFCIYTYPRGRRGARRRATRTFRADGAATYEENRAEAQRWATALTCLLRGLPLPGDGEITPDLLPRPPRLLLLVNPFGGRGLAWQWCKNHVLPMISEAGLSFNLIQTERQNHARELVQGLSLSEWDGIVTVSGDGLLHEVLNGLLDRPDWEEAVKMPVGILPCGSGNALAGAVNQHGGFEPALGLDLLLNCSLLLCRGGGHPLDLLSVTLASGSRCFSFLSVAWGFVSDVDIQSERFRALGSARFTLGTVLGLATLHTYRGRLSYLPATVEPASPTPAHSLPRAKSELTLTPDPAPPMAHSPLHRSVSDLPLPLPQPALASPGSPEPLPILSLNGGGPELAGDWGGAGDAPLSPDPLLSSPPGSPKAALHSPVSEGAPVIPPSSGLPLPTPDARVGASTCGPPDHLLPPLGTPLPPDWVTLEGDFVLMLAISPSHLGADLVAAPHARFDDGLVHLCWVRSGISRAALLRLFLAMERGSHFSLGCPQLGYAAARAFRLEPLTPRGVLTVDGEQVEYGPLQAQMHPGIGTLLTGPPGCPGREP
# MCF7 cells = experiment: Endogenous ceramide level in cells after treatment; assay type: cell-based, human; conditions: 24 hour treatment, 0-25 μM, FIG. 7
# Excerpt: The administration of guanidino-sphingosines to mammalian cells at concentrations capable of inhibiting SK1 or SK2 were also found to increase the level of endogenous Cer in the cells.
# [2] = target: sphingosine kinase 1 (SK1) (Homo sapiens, UniProt Q9NYA1); experiment: In vitro inhibition of purified recombinant sphingosine kinase 1; assay type: biochemical; conditions: purified recombinant enzyme
# Sequence of sphingosine kinase 1 (SK1) (Q9NYA1 whole entry, species assumed): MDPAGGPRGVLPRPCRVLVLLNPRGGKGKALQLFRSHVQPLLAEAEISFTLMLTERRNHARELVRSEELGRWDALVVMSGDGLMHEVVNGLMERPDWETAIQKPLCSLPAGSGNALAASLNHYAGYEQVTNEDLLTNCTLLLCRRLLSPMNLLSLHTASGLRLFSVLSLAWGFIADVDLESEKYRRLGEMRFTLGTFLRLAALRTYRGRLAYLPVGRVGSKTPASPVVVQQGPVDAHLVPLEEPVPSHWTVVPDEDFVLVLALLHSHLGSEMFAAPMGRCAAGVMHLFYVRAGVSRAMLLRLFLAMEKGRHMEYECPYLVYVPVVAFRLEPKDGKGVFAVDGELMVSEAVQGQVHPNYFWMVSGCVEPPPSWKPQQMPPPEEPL
# [3] = test system: prostate cancer (DU145) cells over-expressing acid ceramidase; experiment: BD FALCON FLUOROBLOK migration assay; assay type: cell-based, human; conditions: 5 μM pretreatment overnight; 16/24 hours incubation; FIG. 8
# Experimental: NT represents non-treated cells.
# The presently disclosed guanidino-sphingosines were determined to be capable of inhibiting cell migration of cancer cells overexpressing acid ceramidase. The BD™ FALCON™ (Becton Dickinson and Company, Franklin Lakes, N.J., United States of America) migration assay (using FLUOROBLOK™ polyethylene terphthalate (PET) inserts (8.0 μm)) was performed with prostate cancer (DU145) cells over-expressing acid ceramidase. […] After labeling the cells with carboxyfluorescein diacetate succinimidyl ester fluorscent dye (CFMDA), the cells were seeded on the top well of BDTM FLUOROBLOK™ PET membrane collagen-coated inserts. The negative control consisted of serum free media loaded in the bottom well and 10% FCS-enriched media was used as the positive control. After 16/24 hours incubation, the plate was read from the bottom (485/530 nm) and fluorescence was quantified.
Structure (SMILES),IC50 [1],endogenous C16-ceramide levels (MCF7 cells),IC50 ([2]; read-out: In Vitro IC50 on Sphingosine Kinase 1),migration rate of DU145 cells [3],IC50 ([2]; read-out: IC50 on SK1)
"CCCCCCCCCCCCC/C=C/[C@@H](O)[C@H](CO)NC(=N)N [LCL146, D-erythro-2-N-(1′-carboxamidino)-sphingosine hydrochloride]",0.74 µM,elevation,0.42 µM,–,–
"CCCCCCCCCCCCC/C=C/[C@H](O)[C@@H](CO)NC(=N)N [LCL351, L-erythro-2-N-(1′-carboxamidino)-sphingosine hydrochloride]",0.3 µM,elevation,–,decreases the migration rate,0.04 µM
